According to patent US20220087996A1, “Histone acetylase p300 inhibitor and use thereof” (HINOVA PHARMACEUTICALS INC., priority 2018, published 2022):

Experiments:
Format in all cases: cell-based
VCAP = experiment: Inhibition of proliferation of VCAP cells; conditions: Homo sapiens; Prostate cancer cell line VCAP; read-out: IC50 against VCAP
Protocol: (§1) 1) CWR22RV1 cells were subcultured in cell culture medium, and the cells in good growth condition were seeded in a 96-well plate, 80 μL for each well, and the cell number in each well was 1500. The plate was incubated overnight in a 37° C., 5% CO2 cell incubator. 2) The drug was prepared as 30 mM stock solution with dimethyl sulfoxide (DMSO). Prior to use, the stock solution was diluted 3 times with DMSO, and then further diluted as 3-fold gradient to obtain 9 concentration gradients. Then, each concentration of compound was diluted 200 times with the culture solution (ensuring that the DMSO concentration in the culture system was 0.1%), and two replicate wells were set for each concentration. 20 μL of diluted compound solution was added to the cell culture well (with final concentrations of 10 μM, 3.3 μM. 1.1 μM . . . ), and the plate was gently shaken to mix. In addition, 3 negative control wells containing only cells and 3 blank control wells containing only culture medium were included (6 wells were each added 20 μL DMSO diluted 200 times with culture medium). 2. Result detection: (1) After culturing for 6 days, 10 μL CCK-8 was added to each well, and the plate was continually cultured in a 37° C., 5% CO2 cell incubator for 2.5 h. (2) The absorbance (OD value) was detected at 450 nm using a multifunctional microplate reader. (3) The data were analyzed by Dose-response-inhibition equation in the software GraphPad Prism6, and the IC50 value was obtained.
(§2) Using the same method as Experimental example 2, CWR22RV1 cells were replaced with tumor cells in Table 3, and the IC50 (nM) of the compound according to the present invention against the activity of these tumor cells was tested and calculated.

LNCAP-AR = experiment: Inhibition of proliferation of LNCAP-AR cells; conditions: Prostate cancer cell line LNCAP-AR; read-out: IC50 against LNCAP-AR
Protocol: as §1, §2

TALL-1 = experiment: Inhibition of proliferation of TALL-1 cells; conditions: Homo sapiens; Leukemia cell line TALL-1; read-out: IC50 against TALL-1
Protocol: as §1, §2

HEL = experiment: Inhibition of proliferation of HEL cells; conditions: Homo sapiens; Leukemia cell line HEL; read-out: IC50 against HEL
Protocol: as §1, §2

ATN-1 = experiment: Inhibition of proliferation of ATN-1 cells; conditions: Homo sapiens; Leukemia cell line ATN-1; read-out: IC50 against ATN-1
Protocol: as §1, §2

MOLM-16 = experiment: Inhibition of proliferation of MOLM-16 cells; conditions: MOLM16; Leukemia cell line MOLM-16; read-out: IC50 against MOLM-16
Protocol: as §1, §2

Pfeiffer = experiment: Inhibition of proliferation of Pfeiffer cells; conditions: Homo sapiens; Lymphoma cell line Pfeiffer; read-out: IC50 against Pfeiffer
Protocol: as §1, §2

KARPAS-422 = experiment: Inhibition of proliferation of KARPAS-422 cells; conditions: Homo sapiens; Lymphoma cell line KARPAS-422; read-out: IC50 against KARPAS-422
Protocol: as §1, §2

RL = experiment: Inhibition of proliferation of RL cells; conditions: Homo sapiens; Lymphoma cell line RL; read-out: IC50 against RL
Protocol: as §1, §2

MM.1R = experiment: Inhibition of proliferation of MM.1R cells; conditions: Lymphoma cell line MM.1R; read-out: IC50 against MM.1R
Protocol: as §1, §2

MLMA = experiment: Inhibition of proliferation of MLMA cells; conditions: Lymphoma cell line MLMA; read-out: IC50 against MLMA
Protocol: as §1, §2

MAVER-1 = experiment: Inhibition of proliferation of MAVER-1 cells; conditions: Homo sapiens, Maver1; Lymphoma cell line MAVER-1; read-out: IC50 against MAVER-1
Protocol: as §1, §2

MDA-MB-453 = experiment: Inhibition of proliferation of MDA-MB-453 cells; conditions: Homo sapiens; Breast cancer cell line MDA-MB-453; read-out: IC50 against MDA-MB-453
Protocol: as §1, §2

MCF-7 = experiment: Inhibition of proliferation of MCF-7 cells; conditions: Homo sapiens, MCF7; Breast cancer cell line MCF-7; read-out: IC50 against MCF-7
Protocol: as §1, §2

BT-474 = experiment: Inhibition of proliferation of BT-474 cells; conditions: Homo sapiens; Breast cancer cell line BT-474; read-out: IC50 against BT-474
Protocol: as §1, §2

DU4475 = experiment: Inhibition of proliferation of DU4475 cells; conditions: Homo sapiens, DU-4475; Breast cancer cell line DU4475; read-out: IC50 against DU4475
Protocol: as §1, §2

HCC1428 = experiment: Inhibition of proliferation of HCC1428 cells; conditions: Homo sapiens; Breast cancer cell line HCC1428; read-out: IC50 against HCC1428
Protocol: as §1, §2

KMS-20 = experiment: Inhibition of proliferation of KMS-20 cells; conditions: Multiple myeloma cell line KMS-20; read-out: IC50 against KMS-20
Protocol: as §1, §2

MM.1S = experiment: Inhibition of proliferation of MM.1S cells; conditions: Homo sapiens, MM1.S; Multiple myeloma cell line MM.1S; read-out: IC50 against MM.1S
Protocol: as §1, §2

NCI-H929 = experiment: Inhibition of proliferation of NCI-H929 cells; conditions: Homo sapiens; Multiple myeloma cell line NCI-H929; read-out: IC50 against NCI-H929
Protocol: as §1, §2

| IC50 (VCAP) [µM] | IC50 (LNCAP-AR) [µM] | IC50 (MOLM-16) [µM] | IC50 (KARPAS-422) [µM] | IC50 (MM.1R) [µM] | IC50 (MDA-MB-453) [µM] | IC50 (MCF-7) [µM] | IC50 (BT-474) [µM] | IC50 (HCC1428) [µM] | IC50 (MM.1S) [µM] | IC50 (NCI-H929) [µM] | Compound | IC50 (TALL-1) [µM] | IC50 (HEL) [µM] | IC50 (ATN-1) [µM] | IC50 (Pfeiffer) [µM] | IC50 (RL) [µM] | IC50 (MLMA) [µM] | IC50 (MAVER-1) [µM] | IC50 (DU4475) [µM] | IC50 (KMS-20) [µM] |
| --- | --- | --- | --- | --- | --- | --- | --- | --- | --- | --- | --- | --- | --- | --- | --- | --- | --- | --- | --- | --- |
| ≤ 0.5 | ≤ 0.5 | ≤ 0.5 | ≤ 0.5 | ≤ 0.5 | ≤ 0.5 | ≤ 0.5 | ≤ 0.5 | ≤ 0.5 | 0.5 to 2 | ≤ 0.5 | CNC(=O)Nc1ccc2c(c1)CC[C@@]21OC(=O)N(CC(=O)N2C(C)CC[C@H]2c2cc(F)c(F)c(F)c2)C1=O (stereo in doubt) [Example 205, 1-((R)-3′-(2-((2S,5R)-2-(3,4,5-trifluorophenyl)-5-methylpyrrolidin-1-yl)-2-oxoethyl)-2′,4′-dioxo-2,3-dihydrospiro[indene-1,5′-oxazolidine]-5-yl)-3-methylurea] | ≤ 0.5 | 0.5 to 2 | ≤ 0.5 | ≤ 0.5 | ≤ 0.5 | ≤ 0.5 | ≤ 0.5 | 0.5 to 2 | ≤ 0.5 |
| ≤ 0.5 | ≤ 0.5 | ≤ 0.5 | ≤ 0.5 | ≤ 0.5 | ≤ 0.5 | ≤ 0.5 | ≤ 0.5 | ≤ 0.5 | 0.5 to 2 | ≤ 0.5 | CNC(=O)Nc1ccc2c(c1)CC[C@@]21OC(=O)N(CC(=O)N2[C@@H](C)CC[C@H]2c2ccc(F)c(F)c2)C1=O [Example 201] | ≤ 0.5 | 0.5 to 2 | ≤ 0.5 | ≤ 0.5 | ≤ 0.5 | ≤ 0.5 | ≤ 0.5 | 0.5 to 2 | ≤ 0.5 |
| ≤ 0.5 | ≤ 0.5 | ≤ 0.5 | ≤ 0.5 | ≤ 0.5 | ≤ 0.5 | ≤ 0.5 | ≤ 0.5 | ≤ 0.5 | 0.5 to 2 | ≤ 0.5 | CNC(=O)Nc1cc2c(cc1F)[C@@]1(CC2)OC(=O)N(CC(=O)N2[C@@H](C)CC[C@H]2c2ccc(F)c(F)c2)C1=O [Example 389, 1-((R)-3′-(2-((2S,5S)-2-(3,4-difluorophenyl)-5-methylpyrrolidin-1-yl)-2-oxoethyl)-6-fluoro-2′,4′-dioxo-2,3-dihydrospiro[indene-1,5′-oxazolidine]-5-yl)-3-methylurea] | ≤ 0.5 | ≤ 0.5 | ≤ 0.5 | ≤ 0.5 | ≤ 0.5 | ≤ 0.5 | ≤ 0.5 | 0.5 to 2 | ≤ 0.5 |
